Measurements as given in patent US10894788B2, “Inhibitors of cyclin-dependent kinases” (Kinnate Biopharma Inc., priority 2018, dated 2021).

Assays:
CDK12 wt/CycK = CDK12 wt/CycK (Homo sapiens (Human), UniProt Q9NYV4); assay: Radiometric protein kinase assay (33PanQinase Activity Assay), Assay Condition A (thiol containing conditions); type: biochemical; conditions: thiol containing conditions (1.2 mM DTT), ATP 0.3 μM; read-out: CDK12 IC50 Condition A
Summary of the method: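 Recombinant human kinase incubated with [33P]ATP, substrate and compound (10 concentrations, 1×10^−04M to 3×10^−09M, singlicate, 1% DMSO) under thiol-containing buffer conditions, 60 min at 30 °C. 33Pi incorporation counted by scintillation; residual activity normalised to no-inhibitor and no-kinase controls, IC50 derived.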

CDK12 = CDK12 (Homo sapiens (Human), UniProt Q9NYV4); assay: Radiometric protein kinase assay (33PanQinase Activity Assay), Assay Condition B (thiol-free conditions); type: biochemical; conditions: thiol-free conditions (1 mM TCEP, glutathione removed)
Summary of the method: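 Radiometric 33PanQinase assay under thiol-free conditions: glutathione removed from protein preparations and no thiol reagents in buffer. Ten concentrations, 1×10^−05 M to 3×10^−10 M, singlicate, 1% DMSO final. Residual activity normalised to no-enzyme and no-inhibitor controls; IC50 by least-squares fit.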

[1] = test system: panel of 1,151 cancer cell lines; conditions: in 52% of 1,151 cancer cell lines; cited from earlier work

Sequence of CDK12 (Q9NYV4 whole entry): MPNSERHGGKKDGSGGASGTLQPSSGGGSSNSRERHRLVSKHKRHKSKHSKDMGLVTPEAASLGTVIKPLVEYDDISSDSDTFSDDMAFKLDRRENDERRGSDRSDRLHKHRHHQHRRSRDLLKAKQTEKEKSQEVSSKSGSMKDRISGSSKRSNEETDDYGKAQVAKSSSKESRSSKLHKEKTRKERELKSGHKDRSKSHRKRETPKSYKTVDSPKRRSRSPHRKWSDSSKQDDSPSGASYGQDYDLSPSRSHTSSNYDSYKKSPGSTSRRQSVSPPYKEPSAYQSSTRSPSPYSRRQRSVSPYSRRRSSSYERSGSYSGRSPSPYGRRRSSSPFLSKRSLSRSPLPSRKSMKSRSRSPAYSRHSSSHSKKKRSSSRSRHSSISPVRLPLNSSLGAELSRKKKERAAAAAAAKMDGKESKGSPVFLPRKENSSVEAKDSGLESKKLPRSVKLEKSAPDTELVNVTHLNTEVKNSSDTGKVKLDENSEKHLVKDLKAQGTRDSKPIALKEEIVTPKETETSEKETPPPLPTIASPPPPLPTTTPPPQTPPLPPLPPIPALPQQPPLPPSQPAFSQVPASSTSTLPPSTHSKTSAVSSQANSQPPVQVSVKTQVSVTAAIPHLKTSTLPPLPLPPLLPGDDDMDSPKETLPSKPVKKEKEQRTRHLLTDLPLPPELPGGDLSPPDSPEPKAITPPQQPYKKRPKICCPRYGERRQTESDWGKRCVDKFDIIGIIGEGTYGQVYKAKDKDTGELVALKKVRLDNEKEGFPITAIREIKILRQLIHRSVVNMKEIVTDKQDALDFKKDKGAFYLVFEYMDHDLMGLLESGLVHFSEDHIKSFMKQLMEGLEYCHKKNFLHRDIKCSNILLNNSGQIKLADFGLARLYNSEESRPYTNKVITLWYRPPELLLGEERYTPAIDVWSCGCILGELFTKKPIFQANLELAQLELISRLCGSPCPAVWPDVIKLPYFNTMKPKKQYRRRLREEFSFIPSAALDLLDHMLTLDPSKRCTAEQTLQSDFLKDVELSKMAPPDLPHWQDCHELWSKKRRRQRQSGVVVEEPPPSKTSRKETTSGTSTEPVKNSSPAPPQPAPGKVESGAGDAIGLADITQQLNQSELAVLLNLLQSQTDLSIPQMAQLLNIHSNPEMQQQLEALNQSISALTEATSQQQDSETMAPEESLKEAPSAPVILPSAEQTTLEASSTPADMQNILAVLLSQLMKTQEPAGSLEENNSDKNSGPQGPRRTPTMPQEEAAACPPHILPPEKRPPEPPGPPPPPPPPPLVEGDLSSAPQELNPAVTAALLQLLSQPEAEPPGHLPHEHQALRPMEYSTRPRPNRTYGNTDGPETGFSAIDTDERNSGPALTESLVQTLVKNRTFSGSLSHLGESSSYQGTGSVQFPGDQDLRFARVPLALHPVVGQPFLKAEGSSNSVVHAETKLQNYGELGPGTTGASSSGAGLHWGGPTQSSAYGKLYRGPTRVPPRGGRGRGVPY
Sequence of CDK12 (O75909 whole entry partner): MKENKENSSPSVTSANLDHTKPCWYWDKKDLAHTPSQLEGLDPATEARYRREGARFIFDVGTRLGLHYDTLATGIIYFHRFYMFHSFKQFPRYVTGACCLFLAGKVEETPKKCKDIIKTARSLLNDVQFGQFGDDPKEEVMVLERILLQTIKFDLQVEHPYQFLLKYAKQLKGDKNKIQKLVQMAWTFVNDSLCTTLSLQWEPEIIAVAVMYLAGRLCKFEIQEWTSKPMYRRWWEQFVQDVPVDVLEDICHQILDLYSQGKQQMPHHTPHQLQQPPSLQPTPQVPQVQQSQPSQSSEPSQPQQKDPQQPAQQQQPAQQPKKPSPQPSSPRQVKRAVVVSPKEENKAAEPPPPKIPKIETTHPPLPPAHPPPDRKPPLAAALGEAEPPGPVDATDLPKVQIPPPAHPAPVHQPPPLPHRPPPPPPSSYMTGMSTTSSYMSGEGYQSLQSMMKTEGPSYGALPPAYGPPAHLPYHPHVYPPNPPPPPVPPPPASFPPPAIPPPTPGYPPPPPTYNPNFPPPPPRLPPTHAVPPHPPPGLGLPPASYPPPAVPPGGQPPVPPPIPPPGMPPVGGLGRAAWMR
Sequence of CDK12 wt/CycK (Q9NYV4 whole entry): as the sequence (Q9NYV4 whole entry) above
Sequence of CDK12 wt/CycK (O75909 whole entry partner): as the sequence (O75909 whole entry partner) above

| IC50 (CDK12 wt/CycK) [nM] | IC50 (CDK12) [nM] | SMILES | IC50 [1] [nM] |
| --- | --- | --- | --- |
| 100 to 1000 | 100 to 1000 | CCC(=O)Nc1ccc(C(=O)N2CC[C@@H](Nc3ncc(Br)cn3)C2)cc1 [Example 17, (R)—N-(4-(3-((5-bromopyrimidin-2-yl)amino)pyrrolidine-1-carbonyl)phenyl)propionamide] | – |
| 100 to 1000 | 100 to 1000 | C=CC(=O)N(C)c1ccc(C(=O)N2CC[C@@H](Nc3ncc(Cl)cn3)C2)cc1 [Example 28, (R)—N-(4-(3-((5-chloropyrimidin-2-yl)amino)pyrrolidine-1-carbonyl)phenyl)-N-methylacrylamide] | – |
| < 100 | < 100 | C=CC(=O)Nc1ccc(C(=O)N2CC[C@@H](Nc3ncc(Cl)c(OC)n3)C2)cc1 [Example 47, (R)—N-(4-(3-((5-chloro-4-methoxypyrimidin-2-yl)amino)pyrrolidine-1-carbonyl)phenyl)acrylamide] | – |
| < 100 | < 100 | C=CC(=O)Nc1ccc(C(=O)N2CC[C@@H](Nc3ncc(Br)c(OC)n3)C2)cc1 [Example 20, (R)—N-(4-(3-((5-bromo-4-methoxypyrimidin-2-yl)amino)pyrrolidine-1-carbonyl)phenyl)acrylamide] | – |
| < 100 | < 100 | CCC(=O)Nc1ccc(C(=O)N2CC[C@@H](Nc3ncc(Br)c(OC)n3)C2)cc1 [Example 14, (R)—N-(4-(3-((5-bromo-4-methoxypyrimidin-2-yl)amino)pyrrolidine-1-carbonyl)phenyl)propionamide] | – |
| 100 to 1000 | 100 to 1000 | C=CC(=O)Nc1ccc(C(=O)N2CC[C@@H](Nc3cnc(Cl)cn3)C2)cc1 [Example 53, (R)—N-(4-(3-((5-chloropyrazin-2-yl)amino)pyrrolidine-1-carbonyl)phenyl)acrylamide] | – |
| 100 to 1000 | < 100 | C=CC(=O)Nc1ccc(C(=O)N2CC[C@@H](Nc3cc(C)c(Cl)cn3)C2)cc1 [Example 55, (R)—N-(4-(3-((5-chloro-4-methylpyridin-2-yl)amino)pyrrolidine-1-carbonyl)phenyl)acrylamide] | – |
| < 100 | < 100 | C=CC(=O)N(C)c1ccc(C(=O)N2CC[C@@H](Nc3ncc(Cl)c(OC)n3)C2)cc1 [Example 25, (R)—N-(4-(3-((5-chloro-4-methoxypyrimidin-2-yl)amino)pyrrolidine-1-carbonyl)phenyl)-N-methylacrylamide] | – |
| < 100 | < 100 | C=CC(=O)Nc1ccc(C(=O)N2CC[C@@H](Nc3cc(OC)c(Cl)cn3)C2)cc1 [Example 54, (R)—N-(4-(3-((5-chloro-4-methoxypyridin-2-yl)amino)pyrrolidine-1-carbonyl)phenyl)acrylamide] | – |
| 100 to 1000 | < 100 | C=CC(=O)Nc1ccc(C(=O)N2CC[C@@H](Nc3ncc(Cl)c(C)n3)C2)cc1 [Example 52, (R)—N-(4-(3-((5-chloro-4-methylpyrimidin-2-yl)amino)pyrrolidine-1-carbonyl)phenyl)acrylamide] | – |
| < 100 | < 100 | C=CC(=O)Nc1ccc(C(=O)N2CC[C@@H](Nc3ncc(Br)cn3)C2)cc1 [Example 19, (R)—N-(4-(3-((5-bromopyrimidin-2-yl)amino)pyrrolidine-1-carbonyl)phenyl)acrylamide] | – |
| – | – | CN(C)C/C=C/C(=O)Nc1ccc(C(=O)Nc2cccc(Nc3ncc(Cl)c(-c4c[nH]c5ccccc45)n3)c2)cc1 [THZ1] | < 200 |
| 100 to 1000 | < 100 | C=CC(=O)Nc1ccc(C(=O)N2CC[C@@H](Nc3ncc(C4CC4)cn3)C2)cc1 [Example 58, (R)—N-(4-(3-((5-cyclopropylpyrimidin-2-yl)amino)pyrrolidine-1-carbonyl)phenyl)acrylamide] | – |

| SMILES | IC50 (CDK12 wt/CycK) [nM] | IC50 (CDK12) [nM] | IC50 [1] [nM] |
| --- | --- | --- | --- |
| C=CC(=O)Nc1ccc(C(=O)N2CC[C@@H](Nc3ncc(Cl)c(NC)n3)C2)cc1 [Example 62, (R)—N-(4-(3-((5-chloro-4-(methylamino)pyrimidin-2-yl)amino)pyrrolidine-1-carbonyl)phenyl)acrylamide] | < 100 | < 100 | – |
| C=CC(=O)Nc1ccc(C(=O)N2CC[C@@H](Nc3ncc(Cl)cn3)C2)cc1C [Example 29, (R)—N-(4-(3-((5-chloropyrimidin-2-yl)amino)pyrrolidine-1-carbonyl)-2-methylphenyl)acrylamide] | 100 to 1000 | < 100 | – |
| C=CC(=O)Nc1ccc(C(=O)N2CC[C@@H](Nc3ncc(Cl)c(OC)n3)C2)cc1C [Example 26, (R)—N-(4-(3-((5-chloro-4-methoxypyrimidin-2-yl)amino)pyrrolidine-1-carbonyl)-2-methylphenyl)acrylamide] | < 100 | < 100 | – |
